Reference: patent US20250179066A1, “ZWITTERIONIC ANTIBACTERIAL COMPOUNDS” (Hoffmann-La Roche Inc., priority 2022, published 2025)

System: Acinetobacter baumannii ATCC17961
Experiment: Antimicrobial susceptibility testing: 90% growth inhibitory concentration (IC90) determination
Type: cell-based
Settings: Acinetobacter baumannii, ATCC17961, 16 h, 90% growth inhibitory concentration against Acinetobacter baumannii ATCC17961, Iso-Sensitest broth, OD 600 nm over 16 h; read-out: ATCC 17961 IC90
Summary of the method: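 OD600 monitored each minute over 16 h at 35±2° C for bacteria (~5×10^5 CFU/mL final) in Iso-Sensitest medium with 10-point twofold compound series (e.g. 10-0.0195 μM final). Concentration giving 90% growth inhibition in log phase reported as IC90.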

| IC90 [nM] | SMILES |
| --- | --- |
| 393 | Cn1c(-c2cn(-c3ccc(N)cc3F)nc2C(F)(F)F)cnc1C(=O)Nc1ccc(C(=O)N2CCC(C(=O)N3CC[N+](CCCN)(CC(=O)O)CC3)CC2)c(Cl)c1 [Example 135, 2-[4-[1-[4-[[5-[1-(4-amino-2-fluoro-phenyl)-3-(trifluoromethyl)pyrazol-4-yl]-1-methyl-imidazole-2-carbonyl]amino]-2-chloro-benzoyl]isonipecotoyl]-1-(3-aminopropyl)piperazin-1-ium-1-yl]acetic acid. 1:1 2,2,2-trifluoroacetate] |
| 430 | Cn1c(-c2cn(-c3cc4c(ccn4CCO)cn3)nc2C(F)(F)F)cnc1C(=O)Nc1ccc(C(=O)N2CCN(C(=O)[C@H]3CC[N@+](CC(=O)O)(CC4CNC4)CC3)CC2)c(Cl)c1 [Example 174, cis-2-[1-(azetidin-3-ylmethyl)-4-[4-[2-chloro-4-[[5-[1-[1-(2-hydroxyethyl)pyrrolo[3,2-c]pyridin-6-yl]-3-(trifluoromethyl)pyrazol-4-yl]-1-methyl-imidazole-2-carbonyl]amino]benzoyl]piperazine-1-carbonyl]piperidin-1-ium-1-yl]acetic acid. 1:1 2,2,2-trifluoroacetate] |
| 744 | Cn1c(-c2cn(-c3cc4nn(CC(N)=O)cc4cn3)nc2C(F)(F)F)cnc1C(=O)Nc1ccc(C(=O)N2CCN(C(=O)[C@H]3CC[N@+](CC(=O)O)(CC4CNC4)CC3)CC2)c(Cl)c1 [Example 149, cis-2-[4-[4-[4-[[5-[1-[2-(2-amino-2-keto-ethyl)pyrazolo[4,3-c]pyridin-6-yl]-3-(trifluoromethyl)pyrazol-4-yl]-1-methyl-imidazole-2-carbonyl]amino]-2-chloro-benzoyl]piperazine-1-carbonyl]-1-(azetidin-3-ylmethyl)piperidin-1-ium-1-yl]acetic acid. 1:1 2,2,2-trifluoroacetate] |

More lines, now with the values behind:

| SMILES | IC90 [nM] |
| --- | --- |
| CNCCNc1ccc(-n2cc(-c3cnc(C(=O)Nc4ccc(C(=O)N5CCN(C(=O)C6CC[N+](CC(=O)O)(CC7CNC7)CC6)CC5)c(Cl)c4)n3C)c(C(F)(F)F)n2)nc1 (stereo not drawn) [Example 4, 2-[1-(azetidin-3-ylmethyl)-4-[4-[2-chloro-4-[[1-methyl-5-[1-[5-[2-(methylamino)ethylamino]-2-pyridyl]-3-(trifluoromethyl)pyrazol-4-yl]imidazole-2-carbonyl]amino]benzoyl]piperazine-1-carbonyl]piperidin-1-ium-1-yl]acetic acid. 1:1 2,2,2-trifluoroacetate] | 390 |
| CNc1ccc(-n2cc(-c3cnc(C(=O)Nc4ccc(C(=O)N5CCN(C(=O)[C@H]6CC[N@+](CC(=O)O)(CC7CNC7)CC6)CC5)c(Cl)c4)n3C)c(C(F)(F)F)n2)nc1 [Example 29, cis-2-[1-(azetidin-3-ylmethyl)-4-[4-[2-chloro-4-[[1-methyl-5-[1-[5-(methylamino)-2-pyridyl]-3-(trifluoromethyl)pyrazol-4-yl]imidazole-2-carbonyl]amino]benzoyl]piperazine-1-carbonyl]piperidin-1-ium-1-yl]acetic acid. 1:1 2,2,2-trifluoroacetate] | 360 |
| Cn1c(-c2cn(-c3ccc(N)cn3)nc2C(F)(F)F)cnc1C(=O)Nc1ccc(C(=O)N2CCN(C(=O)NCCCc3cc[n+](CC(=O)O)c(CCCN)c3)CC2)c(Cl)c1 [Example 70, 2-[2-(3-Aminopropyl)-4-[3-[[4-[4-[[5-[1-(5-amino-2-pyridyl)-3-(trifluoromethyl)pyrazol-4-yl]-1-methyl-imidazole-2-carbonyl]amino]-2-chloro-benzoyl]piperazine-1-carbonyl]amino]propyl]pyridin-1-ium-1-yl]acetic Acid.1:1 2,2,2-trifluoroacetic Acid.1:1 2,2,2-trifluoroacetate] | 850 |
